Reference: patent publication US20050032124A1, “Identification of genotype-selective agents for treating Huntington's disease” (priority 2003, published 2005)
≈ marks a conversion by molar mass, not a printed value. Read-outs that look alike come from different tables or passages of the source.

Experiments:
Assay in all cases: Calcein AM viability assay, dilution-series retest
[1] = system: BJ-TERT cells; type: cell-based; conditions: Homo sapiens, 48 h, read-out: IC50, BJ-TERT
From the text: (§1) Described here is work carried out to identify compounds with increased potency or activity in the presence of hTERT, LT, ST, E6, E7 or RAS^V12. Engineered cell lines with these genetic elements were used to screen […] compounds, including 20,000 compounds from a combinatorial library, 1,990 compounds from the National Cancer Institute diversity collection, and 1,540 biologically active known compounds that were selected and purchased by Applicant and formatted into a screenable collection. The primary screen tested (in quadruplicate) the effect of treating tumorigenic BJ-TERT/LT/ST/RAS^V12 engineered tumorigenic cells with each compound for 48 hours at a concentration of 4 μg/mL, corresponding to 10 μM for a compound with a molecular weight of 400, which is the approximate median molecular weight of the libraries. Cell viability was measured using the dye calcein acetoxymethyl ester (calcein AM) (Wang et al., 1993, Hum. Immunol. 3 7, 264-270), which is a non-fluorescent compound that freely diffuses into cells. In live cells, calcein AM is cleaved by intracellular esterases, forming the anionic fluorescent derivative calcein, which cannot diffuse out of live cells. […] The IC50 value (concentration required to inhibit 50% of the calcein AM signal) was calculated for each compound in each cell line (Table 1). […] Following is a more detailed analysis of these nine compounds.
(§2) Calcein acetoxylmethyl ester (AM) is a cell membrane-permeable, non-fluorescent compound that is cleaved by intracellular esterases to form the anionic, cell-impermeable, fluorescent compound calcein. Viable cells are stained by calcein because of the presence of intracellular esterases and because the intact plasma membrane prevents fluorescent calcein from leaking out of cells (Wang et al., 1993, supra). Cells were seeded in 384-well plates using a Zymark Sciclone ALH, treated with each compound in triplicate at 4 μg/mL in the primary screen for two days, washed with phosphate-buffered saline on a Packard Minitrak with a 384-well washer and incubated for four hours with 0.7 μg/mL calcein (Molecular Probes). Total fluorescence intensity in each well was recorded on a Packard Fusion platereader, and converted to a percent inhibition of signal by subtracting the instrument background and dividing by the average signal obtained when cells were not treated with any compound.
(§3) Replica daughter plates were prepared with a Zymark Sciclone ALH and integrated Twister II by diluting stock plates 50 fold in medium lacking serum and pen/strep to obtain a compound concentration in daughter plates of 80 μg/ml with 2% DMSO. Assay plates were prepared by seeding cells in black, clear bottom 384-well plates in columns 1-23 (6000 cells/well in 57 μl) using a syringe bulk dispenser. Columns 3-22 were treated with compounds from a daughter library plate by transferring 3 μl from the daughter library plate using 384-position fixed cannula array. The final compound concentrations in assay plates were thus 4 μg/ml. The assay plates were incubated for 48 hours at 37° C. in humidified incubator containing 5% CO2. Plate processing for the calcein AM viability assay was performed using an integrated Minitrak/Sidetrak robotic system from Packard Bioscience (Perkin Elmer). Assay plates were washed with phosphate buffered saline, and 20 μl of calcein AM (0.7 μg/ml) per well was added. Plates were incubated at room temperature for 4 hours. Fluorescence intensity was determined using a Fusion platereader with filters centered on an excitation of 485 nm and an emission of 535 nm.
(§4) Compounds to be retested were purchased from manufacturers. Stocks were prepared in DMSO at a concentration of 1 mg/ml in 384-well polypropylene plates with a 16-point, two-fold dilution dose curve of each compound in a column, in duplicates. Column 1-2 and 23-24 were left empty for controls. […]

[2] = system: BJ-TERT/LT/RAS^V12 cells; type: cell-based; conditions: Homo sapiens, 48 h, read-out: IC50, BJ-TERT/LT/Ras^V12
From the text: as §1, §2, §3, §4

[3] = system: TIP5/TERT/LT cells; type: cell-based, human; conditions: Homo sapiens, 48 h, read-out: IC50, TIP5 TERT/LT
From the text: (§5) In a third series, cell lines derived from independently prepared human TIP5 foreskin fibroblasts created by introducing cDNA constructs encoding hTERT, LT, ST and RASV12 (Lessnick et al., 2002, Cancer Cell 1, 393-401) were used. These cell lines were called, respectively: TIP5/TERT, TIP5/TERT/LT, TIP5/TERT/LT/ST, and TIP5/TERT/LT/ST/RAS^V12. In a fourth series, cell lines derived from TIP5 fibroblasts created by introducing cDNA constructs encoding hTERT, E6, E7, ST and RAS^V12 were used. These cell lines were named, respectively: TIP5/TERT/E6, TIP5/TERT/E6/E7, TIP5/TERT/E6/E7/ST, and TIP5/TERT/E6/E7/ST/RAS^V12. In this series, HPV E6 and E7, which inactivate p53 and RB, respectively, serve a similar function as LT in the previous series. However, by using HPV E6 and E7, Applicants were able to observe the effects of inactivating, separately and independently, p53 and RB. Results of a large-scale screen for compounds that display selective killing of these engineered tumorigenic cell lines are described in the examples that follow.
as §2, §3
(§6) Compounds to be retested were purchased from manufacturers. Stocks were prepared in DMSO at a concentration of 1 mg/ml in 384-well polypropylene plates with a 16-point, two-fold dilution dose curve of each compound in a column, in duplicates. Column 1-2 and 23-24 were left empty for controls. Daughter retest plates were prepared from stock retest plate by diluting 66.6 fold in DMEM in 384-well deep-deep well plates (4.5 μl transfer into 300 μl). Cells were seeded at a density of 6000 per well in 40 μl, and 20 μl was added from a daughter retest plate. The plates were incubated for two days at 37° C. with 5% CO2.
(§7) Mean RFU (relative fluorescence units) for untreated cells was calculated by averaging columns 1, 2, and 23 (wells with cells but lacking compounds). […]

[4] = system: TIP5/TERT/E6/E7/ST/RAS^V12 cells; type: cell-based, human; conditions: Homo sapiens, 48 h, read-out: IC50, TIP5-TERT/E6E7 ST/Ras^V12
From the text: as §5, §2, §3, §6, §7

[5] = system: TIP5/TERT/E6/E7 cells; type: cell-based, human; conditions: for IC50: Homo sapiens, 48 h, read-out: IC50, TIP5-TERT/E6E7
From the text: as §5, §2, §3, §6, §7

[6] = system: TIP5/TERT/LT/ST/RAS^V12 cells; type: cell-based, human; conditions: Homo sapiens, 48 h, read-out: IC50, TIP5 TERT/LT/ST/Ras^V12
From the text: as §5, §2, §3, §6, §7

[7] = BJ-TERT cells, 16-point two-fold dilution, two days
[8] = BJ-TERT/LT/Ras^V12 cells, 16-point two-fold dilution, two days
[9] = TIP5 TERT/LT cells, 16-point two-fold dilution, two days
[10] = TIP5-TERT/E6E7/ST/Ras^V12 cells, 16-point two-fold dilution, two days
[11] = TIP5-TERT/E6E7 cells, 16-point two-fold dilution, two days
[12] = TIP5 TERT/LT/ST/Ras^V12 cells, 16-point two-fold dilution, two days

COc1ccc(C[C@H]2C(=O)N[C@@H](C)C(=O)N(C)[C@@H]3C(=O)N(C)[C@@H](Cc4ccc(O)c(c4)Oc4ccc(cc4)[C@@H]3O)C(=O)N[C@H](C)C(=O)N[C@@H](C)C(=O)N2C)cc1 [Bouvardin]
IC50 [1]: 0.078 µg/mL (≈ 0.101 µM) | IC50 [2]: 0.078 µg/mL (≈ 0.101 µM) | IC50 [3]: 0.312 µg/mL (≈ 0.404 µM) | IC50 [4]: 0.078 µg/mL (≈ 0.101 µM) | IC50 [5]: 0.039 µg/mL (≈ 0.0505 µM) | IC50 [6]: 0.039 µg/mL (≈ 0.0505 µM)

CC[C@@]1(O)C(=O)OCc2c1cc1n(c2=O)Cc2cc3ccccc3nc2-1 [Camptothecin]
IC50 [1, 7]: > 5 µg/mL | IC50 [2, 8]: 1.25 µg/mL (≈ 3.59 µM) | IC50 [3, 9]: > 5 µg/mL | IC50 [4, 10]: 0.156 µg/mL (≈ 0.448 µM) | activity in cells lacking RB function (via expression of E7) [5]: partially active | IC50 [5, 11]: 0.625 µg/mL (≈ 1.79 µM) | IC50 [6, 12]: 0.156 µg/mL (≈ 0.448 µM)

COc1cccc2c1C(=O)c1c(O)c3c(c(O)c1C2=O)C[C@@](O)(C(C)=O)C[C@@H]3O[C@H]1C[C@H](N)[C@H](O)[C@H](C)O1 [Daunorubicin]
IC50 [1]: 1.25 µg/mL (≈ 2.37 µM) | IC50 [2]: 1.25 µg/mL (≈ 2.37 µM) | IC50 [3]: 1.25 µg/mL (≈ 2.37 µM) | IC50 [4]: 0.625 µg/mL (≈ 1.18 µM) | IC50 [5]: 0.625 µg/mL (≈ 1.18 µM) | IC50 [6]: 0.825 µg/mL (≈ 1.56 µM)

COc1cccc2c1C(=O)c1c(O)c3c(c(O)c1C2=O)C[C@@](O)(C(=O)CO)C[C@@H]3O[C@H]1C[C@H](N)[C@H](O)[C@H](C)O1 [Doxorubicin]
IC50 [1, 7]: 1.25 µg/mL (≈ 2.3 µM) | IC50 [2, 8]: 1.25 µg/mL (≈ 2.3 µM) | IC50 [3, 9]: 1.25 µg/mL (≈ 2.3 µM) | IC50 [4, 10]: 1.25 µg/mL (≈ 2.3 µM) | IC50 [5, 11]: 1.25 µg/mL (≈ 2.3 µM) | IC50 [6, 12]: 0.625 µg/mL (≈ 1.15 µM)

CS[C@H]1SC[C@H]2C(=O)N(C)[C@@H](C(C)C)C(=O)OC[C@@H](NC(=O)c3cnc4ccccc4n3)C(=O)N[C@@H](C)C(=O)N(C)[C@@H]1C(=O)N(C)[C@@H](C(C)C)C(=O)OC[C@@H](NC(=O)c1cnc3ccccc3n1)C(=O)N[C@@H](C)C(=O)N2C [Echinomycin]
IC50 [1]: 0.312 µg/mL (≈ 0.283 µM) | IC50 [2]: 0.0048 µg/mL (≈ 0.00436 µM) | IC50 [3]: 5 µg/mL (≈ 4.54 µM) | IC50 [4]: 0.0048 µg/mL (≈ 0.00436 µM) | IC50 [5]: 0.048 µg/mL (≈ 0.0436 µM) | IC50 [6]: 0.0024 µg/mL (≈ 0.00218 µM)

CCOc1ccccc1-n1c(C(C)N2CCN(C(=O)COc3ccc(Cl)cc3)CC2)nc2ccccc2c1=O (stereo not shown) [Erastin]
IC50 [1, 7]: > 5 µg/mL | IC50 [2, 8]: > 5 µg/mL | IC50 [3, 9]: > 5 µg/mL | IC50 [4, 10]: 5 µg/mL (≈ 9.14 µM) | IC50 [5, 11]: > 5 µg/mL | IC50 [6, 12]: 2.5 µg/mL (≈ 4.57 µM)

O=C1c2c(O)ccc(O)c2C(=O)c2c(NCCNCCO)ccc(NCCNCCO)c21 [Mitoxantrone]
IC50 [1, 7]: 1.25 µg/mL (≈ 2.81 µM) | IC50 [2, 8]: 1.25 µg/mL (≈ 2.81 µM) | IC50 [3, 9]: 1.25 µg/mL (≈ 2.81 µM) | IC50 [4, 10]: 1.25 µg/mL (≈ 2.81 µM) | IC50 [5, 11]: 0.625 µg/mL (≈ 1.41 µM) | IC50 [6, 12]: 1.25 µg/mL (≈ 2.81 µM)

NC(=O)c1cn([C@@H]2O[C@H](CO)[C@@H](O)[C@H]2O)c2ncnc(N)c12 [Sangivamycin]
IC50 [1]: 0.039 µg/mL (≈ 0.126 µM) | IC50 [2]: 0.078 µg/mL (≈ 0.252 µM) | IC50 [3]: 0.312 µg/mL (≈ 1.01 µM) | IC50 [4]: 0.078 µg/mL (≈ 0.252 µM) | IC50 [5]: 0.078 µg/mL (≈ 0.252 µM) | IC50 [6]: 0.078 µg/mL (≈ 0.252 µM)
